# Results taken from a polymer gas permeability compilation.
SMILES,CH4 permeability [Barrer],CO2 permeability [Barrer],N2 permeability [Barrer],O2 permeability [Barrer],H2 permeability [Barrer]
*CC=C(C*)[Si](C)(OC(C)C)OC(C)C (repeat unit),63.2,345,25.4,69.2,
*Oc1ccc2c(c1)C1(CC2(C)C)CC(C)(C)c2ccc(OC(=O)c3ccc(C(*)=O)cc3)cc21 (repeat unit),4.22,55.7,2.98,13.4,
*c1ccc(Oc2ccc(N3C(=O)c4cc(Oc5ccc(C)cc5)c(-c5cc6c(cc5Oc5ccc(C)cc5)C(=O)N(*)C6=O)cc4C3=O)cc2)cc1 (repeat unit),1.45,44,1.25,4.99,
*c1ccc(C(c2ccc(-c3nc4cc(C(c5ccc6oc(*)nc6c5)(C(F)(F)F)C(F)(F)F)ccc4o3)cc2)(C(F)(F)F)C(F)(F)F)cc1 (repeat unit),176,4540,300,1150,3900
*C=CCCC* (repeat unit),430,2000,100,310,415
*Oc1ccc(-c2c(-c3ccc(C)cc3)c(-c3ccc(C)cc3)c(-c3ccc4c(c3)Oc3c(C#N)c(*)c(*)c(C#N)c3O4)c(-c3ccc(C)cc3)c2-c2ccc(C)cc2)cc1O* (repeat unit),132,1630,60,256,856
*Cc1ccc(C*)c(Br)c1 (repeat unit),,0.036,,,0.452
*c1ccc(Cc2ccc(N3C(=O)c4ccc(-c5ccc6c(c5)C(=O)N(*)C6=O)cc4C3=O)cc2Br)c(Br)c1 (repeat unit),0.0054,0.315,0.0103,0.0923,
*CC(*)c1ccc(F)cc1 (repeat unit),1.06,17.2,0.83,4.4,
*C(C)=C(*)CCCCCC (repeat unit),64,230,23,60,140
*c1cc2c(cc1C)-c1cc(C)c(N3C(=O)c4ccc(-c5ccc6c(c5)C(=O)N(*)C6=O)cc4C3=O)cc1S2(=O)=O (repeat unit),0.037,2.74,0.0763,0.577,
*C1C(*)C2CC1C1C[CH]([Ge]([CH3])([CH3])[CH3])C21 (repeat unit),620,,,,
*c1ccc(Sc2ccc(N3C(=O)c4ccc(-c5ccc6c(c5)C(=O)N(*)C6=O)cc4C3=O)cc2)cc1 (repeat unit),0.0164,0.774,0.022,,
*CC(*)OC(=O)c1ccccc1C (repeat unit),0.115,2.23,0.0859,0.47,
*c1ccc(Cc2ccc(N3C(=O)c4cc(Oc5ccccc5)c(-c5cc6c(cc5Oc5ccccc5)C(=O)N(*)C6=O)cc4C3=O)cc2)cc1 (repeat unit),0.85,29,0.73,3.36,
*NCCCCCCCCCCC(*)=O (repeat unit),,1,,,2.63
*C(=O)c1ccc([Si](C)(C)c2ccc(C(*)=O)cc2)cc1 (repeat unit),1.39,22.2,1.37,5.54,27.1
*/C(C)=C(/*)[Si](C)(C)c1ccccc1 (repeat unit),1.7,37.6,1.2,4.4,14
*C(C)=C(*)CCC(C)C (repeat unit),112,390,51,130,370
*c1ccc(Cc2ccc(N3C(=O)c4ccc(C(c5ccc6c(c5)C(=O)N(*)C6=O)(C(F)(F)F)C(F)(F)F)cc4C3=O)c(Cl)c2)cc1Cl (repeat unit),0.121,6.78,0.269,1.81,
*CC(*)C#N (repeat unit),,0.0018,0.00016,0.00028,
*CCO* (repeat unit),4.85,40.5,1.32,4.34,6.9
*Oc1ccc(C(C)(C)c2ccc(OC(=O)c3cc(C(*)=O)cc(C(C)(C)C)c3)c(C)c2)cc1C (repeat unit),0.4,8,0.393,2.37,27.1
*C(F)(F)C1(F)OC(F)(F)C(F)(F)C1(F)C(*)(F)F (repeat unit),2,35,5,16,59
*C(=C(*)c1ccc2c(c1)C(C)(C)c1ccccc1-2)c1ccc(C(C)(C)C)cc1 (repeat unit),6600,11000,2500,3500,6300
*CC(*)OC(=O)c1ccccc1 (repeat unit),,6.32,,,

# Results, then the molecule that gave them:
CH4 permeability [Barrer],CO2 permeability [Barrer],N2 permeability [Barrer],O2 permeability [Barrer],H2 permeability [Barrer],SMILES
0.02,0.5,0.019,0.09,,*Oc1ccc(C(C)(C)c2ccc(OCCC(*)O)cc2)cc1 (repeat unit)
34300,47000,15600,17900,33300,*C(=C(*)c1ccc2c(c1)C(C)(C)CC2(C)C)c1ccc(F)cc1 (repeat unit)
27,520,23,85,360,*Oc1cc2c(cc1O*)C1(CC2(C)C)CC(C)(C)c2cc3oc4cc5c(=O)n(-c6c(C)c(C)c(N7C(=O)c8cc(*)c(*)cc8C7=O)c(C)c6C)c(=O)c5cc4oc3cc21 (repeat unit)
0.0625,2.16,0.0499,0.348,11.3,*c1ccc(S(=O)(=O)c2ccc(N3C(=O)c4ccc(-c5ccc6c(c5)C(=O)N(*)C6=O)cc4C3=O)cc2)cc1 (repeat unit)
0.21,13.5,0.58,3.4,,*c1ccc(Oc2ccc(Oc3ccc(*)cc3)c3c2C2c4ccccc4C3c3ccccc32)cc1 (repeat unit)
1.02,19.4,0.971,4.76,,*Oc1ccc(C(=O)c2ccc(Oc3c(C)cc(-c4cc(C)c(*)c(C)c4)cc3C)cc2)cc1 (repeat unit)
0.188,4.5,0.2,1.1,,*Oc1ccc(S(=O)(=O)c2ccc(Oc3ccc(Cc4ccc(*)cc4)cc3)cc2)cc1 (repeat unit)
50.5,692,58.6,198,,*c1c(C)c2c(c(N3C(=O)c4ccc(C(c5ccc6c(c5)C(=O)N(*)C6=O)(C(F)(F)F)C(F)(F)F)cc4C3=O)c1C)C(C)(C)CC2 (repeat unit)
,,,0.045,1.38,*c1cccc(-c2nc3cc(-c4ccc5[nH]c(*)nc5c4)ccc3[nH]2)n1 (repeat unit)
1.43,16.1,1.08,5.03,41.4,*Oc1ccc(C(C)(C)c2ccc(OC(=O)c3cc(C(*)=O)cc(C(C)(C)C)c3)c(C(C)C)c2)cc1C(C)C (repeat unit)
222,,187,933,4440,*CN1CN(*)c2cc3c(cc21)C1(C)CCC3(C)c2cc(*)c(*)cc21 (repeat unit)
0.25,15.6,0.61,,,*c1ccc(-c2nnc(-c3ccc(N4C(=O)c5ccc(C(c6ccc7c(c6)C(=O)N(*)C7=O)(C(F)(F)F)C(F)(F)F)cc5C4=O)cc3)o2)cc1 (repeat unit)
0.565,35,1.2,7.45,83.5,*c1cc(C(c2ccc(O)c(N3C(=O)c4cc5c(cc4C3=O)C3(C)c4ccccc4C5(C)c4cc5c(cc43)C(=O)N(*)C5=O)c2)(C(F)(F)F)C(F)(F)F)ccc1O (repeat unit)
,,0.034,0.216,4,*c1ccc(Oc2ccc(N3C(=O)c4ccc(Oc5ccc(Oc6ccc7c(c6)C(=O)N(*)C7=O)cc5)cc4C3=O)cc2)cc1 (repeat unit)
93,1300,52,205,734,*Oc1ccc(-c2c(-c3ccc(C#N)cc3)c(-c3ccc(C#N)cc3)c(-c3ccc4c(c3)Oc3c(C#N)c(*)c(*)c(C#N)c3O4)c(-c3ccc(C#N)cc3)c2-c2ccc(C#N)cc2)cc1O* (repeat unit)
5.6,190,7.3,32,210,*c1cccc(-c2cc(C)c(-c3cccc(*)c3C)cc2C)c1C (repeat unit)
0.17,6.12,0.292,1.4,19,*c1cccc(Oc2ccc(C(c3ccc(Oc4cccc(-n5c(=O)c6cc7c(=O)n(*)c(=O)c7cc6c5=O)c4)cc3)(C(F)(F)F)C(F)(F)F)cc2)c1 (repeat unit)
4200,9200,1700,2700,5000,*C(=C(*)c1ccc2c(c1)C(C)(C)c1ccccc1-2)c1cc(F)cc(F)c1 (repeat unit)
0.015,0.749,0.02,0.185,,*Nc1ccc(Oc2ccc(Oc3ccc(NC(=O)CN4C(=O)c5ccc(C(*)=O)cc5C4=O)cc3)cc2)cc1 (repeat unit)
